In this experiment the target is GCN2 (Homo sapiens (Human), UniProt Q9P2K8). Nature of the experiment: GCN2 Biochemical Assay (TR-FRET, GFP-eIF2S1 substrate phosphorylation). Particulars: read-out: IC50 (GCN2 Inhibitory Activity). In a few lines:
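TR-FRET readout (Ex 340, Em 490/520 nm) after 2–3 h with Tb-labelled phospho-eIF2S1 antibody in stop mix, following a 70 min room-temperature kinase step. Reaction: in-house GCN2, GFP-eIF2S1, ATP, tRNA in Tris pH 7.5 (2× stocks 1.6 nM, 50 nM, 0.2 mM); compounds tested at 10 concentrations, with a phospho-substrate artifact counter-plate.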

These results are taken from patent US20240025884A1 (Dong-A ST Co., Ltd., priority 2022, published 2024).

Each structure is given as a SMILES string.

GCN2, sequence (Q9P2K8 whole entry): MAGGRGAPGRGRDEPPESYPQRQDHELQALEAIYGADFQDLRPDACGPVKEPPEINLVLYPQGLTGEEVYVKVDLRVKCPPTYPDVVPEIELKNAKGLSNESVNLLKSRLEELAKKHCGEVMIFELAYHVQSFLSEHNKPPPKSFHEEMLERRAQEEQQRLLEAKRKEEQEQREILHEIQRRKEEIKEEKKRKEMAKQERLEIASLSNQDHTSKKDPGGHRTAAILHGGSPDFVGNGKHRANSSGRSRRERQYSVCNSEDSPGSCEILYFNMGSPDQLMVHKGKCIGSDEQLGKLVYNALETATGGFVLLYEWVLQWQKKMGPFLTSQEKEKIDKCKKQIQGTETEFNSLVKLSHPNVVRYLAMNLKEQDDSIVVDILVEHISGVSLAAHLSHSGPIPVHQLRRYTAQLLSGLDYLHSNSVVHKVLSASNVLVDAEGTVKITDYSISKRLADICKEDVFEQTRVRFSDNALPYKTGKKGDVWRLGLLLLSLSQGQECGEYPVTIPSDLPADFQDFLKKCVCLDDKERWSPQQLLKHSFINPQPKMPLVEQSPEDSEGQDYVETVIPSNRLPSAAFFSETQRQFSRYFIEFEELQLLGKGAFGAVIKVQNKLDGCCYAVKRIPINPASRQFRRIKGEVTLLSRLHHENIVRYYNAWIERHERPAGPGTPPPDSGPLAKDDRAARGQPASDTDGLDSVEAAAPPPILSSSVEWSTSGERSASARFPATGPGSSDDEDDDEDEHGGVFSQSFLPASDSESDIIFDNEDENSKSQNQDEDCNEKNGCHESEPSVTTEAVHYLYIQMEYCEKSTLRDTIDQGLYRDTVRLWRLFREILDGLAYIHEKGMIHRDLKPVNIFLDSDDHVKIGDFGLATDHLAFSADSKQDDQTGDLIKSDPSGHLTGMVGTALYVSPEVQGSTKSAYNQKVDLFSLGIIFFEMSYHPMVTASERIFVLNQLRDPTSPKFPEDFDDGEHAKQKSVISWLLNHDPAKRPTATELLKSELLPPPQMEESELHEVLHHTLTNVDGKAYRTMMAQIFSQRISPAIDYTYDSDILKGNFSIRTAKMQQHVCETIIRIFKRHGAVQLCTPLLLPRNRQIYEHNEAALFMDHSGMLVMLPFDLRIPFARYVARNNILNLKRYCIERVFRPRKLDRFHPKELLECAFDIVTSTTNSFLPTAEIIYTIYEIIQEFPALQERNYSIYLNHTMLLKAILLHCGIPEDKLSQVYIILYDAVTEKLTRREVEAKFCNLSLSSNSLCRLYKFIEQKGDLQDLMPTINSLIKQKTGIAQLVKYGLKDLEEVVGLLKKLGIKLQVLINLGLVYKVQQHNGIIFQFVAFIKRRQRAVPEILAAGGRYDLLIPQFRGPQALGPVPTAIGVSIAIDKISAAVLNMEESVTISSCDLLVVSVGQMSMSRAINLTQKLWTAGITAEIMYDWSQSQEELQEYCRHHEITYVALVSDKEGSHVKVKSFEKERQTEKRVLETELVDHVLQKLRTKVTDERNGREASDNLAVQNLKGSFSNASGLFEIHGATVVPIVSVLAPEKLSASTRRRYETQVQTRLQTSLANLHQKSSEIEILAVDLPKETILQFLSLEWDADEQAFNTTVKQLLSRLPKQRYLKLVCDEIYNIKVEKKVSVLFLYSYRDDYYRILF

For the compound `Cc1cnc(Nc2cc(C)n(C)n2)nc1-c1c[nH]c2c(N3Cc4c(N)cccc4C3=O)cccc12` [Example 272, 4-amino-2-(3-(2-((1,5-dimethyl-1H-pyrazol-3-yl)amino)-5-methylpyrimidin-4-yl)-1H-indol-7-yl)isoindolin-1-one], the IC50 is < 10 nM.

On to `Cc1cnc(Nc2cc(C)n(C)n2)nc1-c1c[nH]c2c(N3Cc4c(NC(=O)C5CCOCC5)cccc4C3=O)cccc12` [Example 337, N-(2-(3-(2-((1,5-dimethyl-1H-pyrazol-3-yl)amino)-5-methylpyrimidin-4-yl)-1H-indol-7-yl)-1-oxoisoindolin-4-yl)tetrahydro-2H-pyran-4-carboxamide], for which the IC50 is < 10 nM.

Consider `Cc1cnc(Nc2cc(C)n(C)n2)nc1-c1c[nH]c2c(N3Cc4c(C5=CCNCC5)ccnc4C3=O)cccc12` [Example 496, 6-(3-(2-((1,5-dimethyl-1H-pyrazol-3-yl)amino)-5-methylpyrimidin-4-yl)-1H-indol-7-yl)-4-(1,2,3,6-tetrahydropyridin-4-yl)-5,6-dihydro-7H-pyrrolo[3,4-b]pyridin-7-one], for which the IC50 was < 10 nM.

For the compound `Cc1cnc(Nc2cc(C)n(C)n2)nc1-c1c[nH]c2c(NC(=O)C(C)N3CC[C@H](Oc4ccncc4)C3)cccc12` (stereo partly drawn) [Example 23, N-(3-(2-((1,5-dimethyl-1H-pyrazol-3-yl)amino)-5-methylpyrimidin-4-yl)-1H-indol-7-yl)-2-((S)-3-(pyridin-4-yloxy)pyrrolidin-1-yl)propenamide], the IC50 lay within 100 to 1000 nM.

As for `Cc1cnc(Nc2cc(C)n(C)n2)nc1-c1c[nH]c2c(NC(=O)CN3CC[C@H](Oc4ncc(F)c(N(C)Cc5ccccc5)n4)C3)cccc12` [Example 185, (S)-2-(3-((4-(benzyl(methyl)amino)-5-fluoropyrimidin-2-yl)oxy)pyrrolidin-1-yl)-N-(3-(2-((1,5-dimethyl-1H-pyrazol-3-yl)amino)-5-methylpyrimidin-4-yl)-1H-indol-7-yl)acetamide], the IC50 is < 10 nM.

As for `Cc1cnc(Nc2cc(C)n(C)n2)nc1-c1c[nH]c2c(N3Cc4c(cccc4-c4cncc(F)c4)C3=O)cccc12` [Example 478, 2-(3-(2-((1,5-dimethyl-1H-pyrazol-3-yl)amino)-5-methylpyrimidin-4-yl)-1H-indol-7-yl)-4-(5-fluoropyridin-3-yl)isoindolin-1-one], the IC50 was < 10 nM.

Turning to `Cc1cnc(Nc2cc(C)n(C)n2)nc1-c1c[nH]c2c(N3Cc4c(NC(=O)N5CCNC5=O)cccc4C3=O)cccc12` [Example 313, N-(2-(3-(2-((1,5-dimethyl-1H-pyrazol-3-yl)amino)-5-methylpyrimidin-4-yl)-1H-indol-7-yl)-1-oxoisoindolin-4-yl)-2-oxoimidazolidine-1-carboxamide], the concentration for half-maximal inhibition (IC50) was < 10 nM.

With `CCCCN(CCCC)C(=O)/C=C/c1cccc2c1CN(c1cccc3c(-c4nc(Nc5cc(C)n(C)n5)ncc4C)c[nH]c13)C2=O` [Example 369, (E)-N,N-dibutyl-3-(2-(3-(2-((1,5-dimethyl-1H-pyrazol-3-yl)amino)-5-methylpyrimidin-4-yl)-1H-indol-7-yl)-1-oxoisoindolin-4-yl)acrylamide], the IC50 was in the range of 10 to 100 nM.

Consider `Cc1cnc(Nc2cc(C)n(C)n2)nc1-c1c[nH]c2c(N3Cc4cccc(Nc5ccccc5)c4C3=O)cccc12` [Example 346, 2-(3-(2-((1,5-dimethyl-1H-pyrazol-3-yl)amino)-5-methylpyrimidin-4-yl)-1H-indol-7-yl)-7-(phenylamino)isoindolin-1-one], for which the IC50 lay within 100 to 1000 nM.

On to `Cc1cnc(Nc2cc(C)n(C)n2)nc1-c1c[nH]c2c(N3Cc4c(cccc4-c4ccc(N(C)C)cc4)C3=O)cccc12` [Example 436, 2-(3-(2-((1,5-dimethyl-1H-pyrazol-3-yl)amino)-5-methylpyrimidin-4-yl)-1H-indol-7-yl)-4-(4-(dimethylamino)phenyl)isoindolin-1-one], for which the IC50 fell in the range of 10 to 100 nM.

`Cc1cnc(Nc2cc(C)n(C)n2)nc1-c1c[nH]c2c(N3Cc4c(cncc4-c4ccncc4)C3=O)cccc12` [Example 500, 2-(3-(2-((1,5-dimethyl-1H-pyrazol-3-yl)amino)-5-methylpyrimidin-4-yl)-1H-indol-7-yl)-7-(pyridin-4-yl)-1,2-dihydro-3H-pyrrolo[3,4-c]pyridin-3-one]: the IC50 is < 10 nM.

Take `CONc1nccc(O[C@H]2CCN(CC(=O)Nc3cccc4c(-c5nc(Nc6cc(C)n(C)n6)ncc5C)c[nH]c34)C2)n1` [Example 219, (S)-N-(3-(2-((1,5-dimethyl-1H-pyrazol-3-yl)amino)-5-methylpyrimidin-4-yl)-1H-indol-7-yl)-2-(3-((2-(methoxyamino)pyrimidin-4-yl)oxy)pyrrolidin-1-yl)acetamide]: the IC50 is < 10 nM.

Consider `CCNC(=O)/C=C/c1cccc2c1CN(c1cccc3c(-c4nc(Nc5cc(C)n(C)n5)ncc4C)c[nH]c13)C2=O` [Example 364, (E)-3-(2-(3-(2-((1,5-dimethyl-1H-pyrazol-3-yl)amino)-5-methylpyrimidin-4-yl)-1H-indol-7-yl)-1-oxoisoindolin-4-yl)-N-ethylacrylamide], for which the IC50 was < 10 nM.

For the compound `COc1ccc(-c2cccc3c2CN(c2cccc4c(-c5nc(Nc6cc(C)n(C)n6)ncc5C)c[nH]c24)C3=O)cn1` [Example 406, 2-(3-(2-((1,5-dimethyl-1H-pyrazol-3-yl)amino)-5-methylpyrimidin-4-yl)-1H-indol-7-yl)-4-(6-methoxypyridin-3-yl)isoindolin-1-one], the half-maximal inhibitory concentration (IC50) fell in the range of 10 to 100 nM.

Turning to `CCCNc1cncc(O[C@H]2CCN(CC(=O)Nc3cccc4c(-c5nc(Nc6cc(C)n(C)n6)ncc5C)c[nH]c34)C2)n1` [Example 245, (S)-N-(3-(2-((1,5-dimethyl-1H-pyrazol-3-yl)amino)-5-methylpyrimidin-4-yl)-1H-indol-7-yl)-2-(3-((6-(propylamino)pyrazin-2-yl)oxy)pyrrolidin-1-yl)acetamide], the IC50 is 10 to 100 nM.

For `Cc1cnc(Nc2cc(C)n(C)n2)nc1-c1c[nH]c2c(NC(=O)CN3CC[C@H](Oc4cc(N(C)C)ncn4)C3)cccc12` [Example 153, (S)-N-(3-(2-((1,5-dimethyl-1H-pyrazol-3-yl)amino)-5-methylpyrimidin-4-yl)-1H-indol-7-yl)-2-(3-((6-(dimethylamino)pyrimidin-4-yl)oxy)pyrrolidin-1-yl)acetamide], the half-inhibitory concentration (IC50) is < 10 nM.

As to `Cc1cnc(Nc2cc(C)n(C)n2)nc1-c1c[nH]c2c(NC(=O)CN3CC[C@@H](C(=O)N4CCSCC4)C3)cccc12` [Example 68, (R)-N-(3-(2-((1,5-dimethyl-1H-pyrazol-3-yl)amino)-5-methylpyrimidin-4-yl)-1H-indol-7-yl)-2-(3-(thiomorpholine-4-carbonyl)pyrrolidin-1-yl)acetamide], the IC50 lay in the range of 10 to 100 nM.

Consider `Cc1cnc(Nc2cc(C)n(C)n2)nc1-c1c[nH]c2c(NC(=O)CN3CC[C@H](Oc4ccnc(NCCCO)n4)C3)cccc12` [Example 206, (S)-N-(3-(2-((1,5-dimethyl-1H-pyrazol-3-yl)amino)-5-methylpyrimidin-4-yl)-1H-indol-7-yl)-2-(3-((2-((3-hydroxypropyl)amino)pyrimidin-4-yl)oxy)pyrrolidin-1-yl)acetamide], for which the IC50 was < 10 nM.

On to `Cc1cnc(Nc2cc(C)n(C)n2)nc1-c1c[nH]c2c(NC(=O)CN3CC[C@H](Oc4cc(C(F)(F)F)nc(NC5CC5)n4)C3)cccc12` [Example 237, (S)-2-(3-((2-(cyclopropylamino)-6-(trifluoromethyl)pyrimidin-4-yl)oxy)pyrrolidin-1-yl)-N-(3-(2-((1,5-dimethyl-1H-pyrazol-3-yl)amino)-5-methylpyrimidin-4-yl)-1H-indol-7-yl)acetamide], for which the IC50 lay in the range of 10 to 100 nM.

Consider `CNC(=O)/C=C/c1cccc2c1CN(c1cccc3c(-c4nc(Nc5cc(C)n(C)n5)ncc4C)c[nH]c13)C2=O` [Example 363, (E)-3-(2-(3-(2-((1,5-dimethyl-1H-pyrazol-3-yl)amino)-5-methylpyrimidin-4-yl)-1H-indol-7-yl)-1-oxoisoindolin-4-yl)-N-methylacrylamide], for which the IC50 is < 10 nM.

`Cc1cnc(Nc2cc(C)n(C)n2)nc1-c1c[nH]c2c(N3Cc4c(cccc4-c4cnn(C)c4)C3=O)cccc12` [Example 389, 2-(3-(2-((1,5-dimethyl-1H-pyrazol-3-yl)amino)-5-methylpyrimidin-4-yl)-1H-indol-7-yl)-4-(i-methyl-1H-pyrazol-4-yl)isoindolin-1-one]: the IC50 is < 10 nM.

In the case of `Cc1cnc(Nc2cc(C)n(C)n2)nc1-c1c[nH]c2c(N3Cc4cc(Br)cnc4C3=O)cccc12` [Example 285, 3-bromo-6-(3-(2-((1,5-dimethyl-1H-pyrazol-3-yl)amino)-5-methylpyrimidin-4-yl)-1H-indol-7-yl)-5,6-dihydro-7H-pyrrolo[3,4-b]pyridin-7-one], the IC50 is < 10 nM.

Take `Cc1cnc(Nc2cc(C)n(C)n2)nc1-c1c[nH]c2c(NC(=O)CN3CC[C@H](Oc4nc(N)ncc4F)C3)cccc12` [Example 226, (S)-2-(3-((2-amino-5-fluoropyrimidin-4-yl)oxy)pyrrolidin-1-yl)-N-(3-(2-((1,5-dimethyl-1H-pyrazol-3-yl)amino)-5-methylpyrimidin-4-yl)-1H-indol-7-yl)acetamide]: the IC50 is < 10 nM.

Consider `Cc1cnc(Nc2cc(C)n(C)n2)nc1-c1c[nH]c2c(N3Cc4c(O)cccc4C3=O)cccc12` [Example 281, 2-(3-(2-((1,5-dimethyl-1H-pyrazol-3-yl)amino)-5-methylpyrimidin-4-yl)-1H-indol-7-yl)-4-hydroxyisoindolin-1-one], for which the IC50 is < 10 nM.

As for `Cc1cnc(Nc2cc(C)n(C)n2)nc1-c1c[nH]c2c(N3Cc4c(NC(=O)[C@H]5C[C@H](N)CN5)cccc4C3=O)cccc12` [Example 331, (2R,4S)-4-amino-N-(2-(3-(2-((1,5-dimethyl-1H-pyrazol-3-yl)amino)-5-methylpyrimidin-4-yl)-1H-indol-7-yl)-1-oxoisoindolin-4-yl)pyrrolidine-2-carboxamide], the IC50 was < 10 nM.

As for `Cc1cnc(Nc2cc(C)n(C)n2)nc1-c1c[nH]c2c(NC(=O)CN3CC[C@H](Oc4ccnc(Cl)c4)C3)cccc12` [Example 91], the IC50 lay within 10 to 100 nM.
